Laboratory results: ChEMBL document CHEMBL1770065, “Discovery of a clinical candidate from the structurally unique dioxa-bicyclo[3.2.1]octane class of sodium-dependent glucose cotransporter 2 inhibitors” (J Med Chem, 2011)

Columns and labels:
[1] = Lipophilicity, log D of the compound; assay type: physicochemical; conditions: octanol/water
[2] = Apparent intrinsic clearance in human liver microsomes assessed per mg of protein; assay type: ADME, Microsome
[3] = biological target: T1, Sodium/glucose cotransporter 2 (Homo sapiens, UniProt P31639); assay: Inhibition of human SGLT2 expressed in CHO cells assessed as inhibition of methyl alpha-D-glucopyranoside uptake after 1 hr; assay type: cell-based
T1 sequence (P31639 whole entry): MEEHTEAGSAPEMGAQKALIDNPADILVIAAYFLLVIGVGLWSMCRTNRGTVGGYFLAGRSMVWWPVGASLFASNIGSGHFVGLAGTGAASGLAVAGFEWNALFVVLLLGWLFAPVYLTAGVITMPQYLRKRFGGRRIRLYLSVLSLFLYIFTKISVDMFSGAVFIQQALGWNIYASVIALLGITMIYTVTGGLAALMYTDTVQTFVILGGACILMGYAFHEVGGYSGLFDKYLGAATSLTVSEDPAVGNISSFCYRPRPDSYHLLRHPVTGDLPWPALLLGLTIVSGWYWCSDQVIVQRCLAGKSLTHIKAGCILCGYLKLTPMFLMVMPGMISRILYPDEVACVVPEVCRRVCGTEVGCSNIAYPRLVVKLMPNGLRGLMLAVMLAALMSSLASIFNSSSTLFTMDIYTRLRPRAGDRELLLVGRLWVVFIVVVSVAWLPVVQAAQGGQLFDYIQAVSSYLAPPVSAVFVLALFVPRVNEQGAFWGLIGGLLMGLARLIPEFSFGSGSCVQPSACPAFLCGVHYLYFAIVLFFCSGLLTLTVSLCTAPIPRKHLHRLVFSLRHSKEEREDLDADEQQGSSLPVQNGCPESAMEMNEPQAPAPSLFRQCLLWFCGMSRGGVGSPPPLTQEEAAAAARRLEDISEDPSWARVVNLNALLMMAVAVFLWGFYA

[4] = Half life in Sprague-Dawley rat at 2 mg/kg, iv; assay type: ADME, organism-based; parameters: dose 2 mg/kg, route intravenous; conditions: in vivo
[5] = Apparent intrinsic clearance in human hepatocytes assessed per million of cells; assay type: ADME, cell-based, Liver, Hepatocyte
Rattus norvegicus = assay: Hepatic clearance in Sprague-Dawley rat at 2 mg/kg, iv; assay type: ADME, organism-based, Liver; parameters: dose 2 mg/kg, route intravenous; conditions: in vivo
[6] = Renal clearance in Sprague-Dawley rat at 2 mg/kg, iv; assay type: ADME, organism-based, Kidney; parameters: dose 2 mg/kg, route intravenous; conditions: in vivo
[7] = biological target: T2, Sodium/glucose cotransporter 1 (Homo sapiens, UniProt P13866); assay: Inhibition of human SGLT1 expressed in CHO cells assessed as inhibition of methyl alpha-D-glucopyranoside uptake after 1 hr; assay type: cell-based
T2 sequence (P13866 whole entry): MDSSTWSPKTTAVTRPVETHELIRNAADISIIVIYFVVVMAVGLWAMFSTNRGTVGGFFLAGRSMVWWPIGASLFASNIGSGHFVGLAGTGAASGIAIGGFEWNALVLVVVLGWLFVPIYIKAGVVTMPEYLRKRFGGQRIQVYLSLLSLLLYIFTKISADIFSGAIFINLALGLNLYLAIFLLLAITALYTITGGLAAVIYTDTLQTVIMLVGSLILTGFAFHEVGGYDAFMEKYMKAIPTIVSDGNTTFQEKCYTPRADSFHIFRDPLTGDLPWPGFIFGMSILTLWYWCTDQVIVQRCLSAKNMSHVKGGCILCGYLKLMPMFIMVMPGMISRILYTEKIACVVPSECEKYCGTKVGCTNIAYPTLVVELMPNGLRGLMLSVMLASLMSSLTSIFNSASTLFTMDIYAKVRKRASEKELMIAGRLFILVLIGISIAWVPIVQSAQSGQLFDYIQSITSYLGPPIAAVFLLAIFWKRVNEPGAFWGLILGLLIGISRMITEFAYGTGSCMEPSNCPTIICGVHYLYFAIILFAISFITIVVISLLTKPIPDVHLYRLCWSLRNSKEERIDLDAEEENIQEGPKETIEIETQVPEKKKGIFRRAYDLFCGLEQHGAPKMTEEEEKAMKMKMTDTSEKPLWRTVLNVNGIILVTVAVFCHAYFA

Plasma [8] = assay: Fraction unbound in rat plasma at 1000 ng/mL by equilibrium dialysis method; assay type: ADME, cell-free
Plasma [9] = assay: Fraction unbound in human plasma at 1000 ng/mL by equilibrium dialysis method; assay type: ADME, cell-free

SMILES	logD [1]	microsomal CLint [2]	IC50 [3]	half-life [4]	hepatocyte CLint [5]	CL (Rattus norvegicus)	CL renal [6]	IC50 [7]	Fu (Plasma [8])	Fu (Plasma [9])
COc1ccc(Cc2cc([C@]34OC[C@](CO)(O3)[C@@H](O)[C@H](O)[C@H]4O)ccc2Cl)cc1	3.2	9.2 µL/min/mg	0.882 nM	1.6 h	2 µL/min/1e6 cells					
COc1ccc(Cc2cc([C@@H]3OC4(COC4)[C@@H](O)[C@H](O)[C@H]3O)ccc2C)cc1	3	12 µL/min/mg	6.98 nM	1.9 h	44 µL/min/1e6 cells	20.5 mL/min/kg	1.8 mL/min/kg			
COc1ccc(Cc2cc([C@]34OC[C@](CO)(O3)[C@@H](O)[C@H](O)[C@@H]4O)ccc2Cl)cc1	3.9	15 µL/min/mg	43.1 nM		2.3 µL/min/1e6 cells			> 10000 nM		
CCOc1ccc(Cc2cc([C@]34OC[C@](CO)(O3)[C@@H](O)[C@H](O)[C@@H]4O)ccc2Cl)cc1	3.8		89.9 nM					> 10000 nM		
COc1ccc(Cc2cc([C@]34OC[C@](CO)(O3)[C@@H](O)[C@H](O)[C@H]4O)ccc2C)cc1	2.6	< 8 µL/min/mg	1.07 nM		2.1 µL/min/1e6 cells			506 nM	18.6%	20.6%
COc1ccc(Cc2cc([C@@H]3O[C@H](CO)[C@@H](O)[C@H](O)[C@H]3O)ccc2Cl)cc1	3	< 9 µL/min/mg			< 2 µL/min/1e6 cells					
CCc1ccc(Cc2cc([C@@H]3OC4(CNC4)[C@@H](O)[C@H](O)[C@H]3O)ccc2C)cc1	3.2	32 µL/min/mg			< 2 µL/min/1e6 cells					
COc1ccc(Cc2cc([C@@H]3O[C@H](CO)[C@@H](O)[C@H](O)[C@H]3O)ccc2C)cc1	2.4	< 8 µL/min/mg			3.4 µL/min/1e6 cells					
CCOc1ccc(Cc2cc([C@]34OC[C@](CO)(O3)[C@@H](O)[C@H](O)[C@H]4O)ccc2C)cc1	3	8.9 µL/min/mg	1.11 nM		2 µL/min/1e6 cells			958 nM		
